According to patent US6369080B2, “Selective factor Xa inhibitors” (COR Therapeutics, Inc., priority 1996, dated 2002):

Molecular target: T1, thrombin (Homo sapiens, UniProt P00734)
T1 construct: converts the zymogen prothrombin into the active procoagulant thrombin
Assay: Thrombin amidolytic assay (chromogenic substrate Chromozym TH)
Type: biochemical
Details: room temperature, pH 7.5, 5 minutes preincubation
Method: The compounds of the present invention are first dissolved in a buffer to give solutions containing concentrations such that assay concentrations range from 0-100 μM. In assays for thrombin, prothrombinase and factor Xa, a synthetic chromogenic substrate would be added to a solution containing a test compound and the enzyme of interest and the residual catalytic activity of that enzyme would then be determined spectrophotometrically.
The IC50 of a compound is determined from the substrate turnover. The IC50 is the concentration of test compound giving 50% inhibition of the substrate turnover.
Factor Xa and thrombin assays are performed at room temperature, in 0.02 M Tris HCl buffer, pH 7.5, containing 0.15 M NaCl. The rates of hydrolysis of the paranitroanilide substrate S-2765 (Chromogenix) for factor Xa, and the substrate Chromozym TH (Boehringer Mannheim) for thrombin following preincubation of the enzyme with the test compound for 5 minutes at room temperature are determined using a Softmax 96-well plate reader (Molecular Devices), monitored at 405 nm to measure the time dependent appearance of p-nitroanilide.

IC50: 8 nM
SMILES: N=C(N)NCCC[C@H](NC(=O)Cn1cccc(NS(=O)(=O)Cc2ccccc2)c1=O)C(=O)c1nccs1 [Example 9]
